Data: publication PMC12608155, “Discovery of Potential Antileishmanial Compounds Through Phenotypic Screening of an Alkaloid Library” (Molecules, 2025)
Read-outs that look alike come from different tables or passages of the source.

Test system: L. donovani IRFP axenic amastigotes
Experiment: Primary single-concentration screening on axenic amastigotes, growth inhibition at 72 h
Type: cell-based, Leishmania donovani
Conditions: axenic amastigotes; for Growth Inhibition (%) at 72h, 1 µM_Exp1 / Growth Inhibition (%) at 72h, 1 µM_Exp2 / inhibition at 1 µM: 1 µM; for Growth Inhibition (%) at 72h, 10 µM_Exp1 / Growth Inhibition (%) at 72h, 10 µM_Exp2 / inhibition at 10 µM: 10 µM; for inhibition at 1 µM / inhibition at 10 µM: Leishmania donovani
[1] = experiment 1, 72 h, read-out: Growth Inhibition (%) at 72h, 1 µM_Exp1
[2] = experiment 2, 72 h, read-out: Growth Inhibition (%) at 72h, 1 µM_Exp2
[3] = experiment 1, 72 h, read-out: Growth Inhibition (%) at 72h, 10 µM_Exp1
[4] = experiment 2, 72 h, read-out: Growth Inhibition (%) at 72h, 10 µM_Exp2

SMILES	Growth Inhibition (%) at 72h, 1 µM_Exp1 (experiment 1, 72 h) [%]	Growth Inhibition (%) at 72h, 1 µM_Exp2 (experiment 2, 72 h) [%]	Growth Inhibition (%) at 72h, 10 µM_Exp1 (experiment 1, 72 h) [%]	Growth Inhibition (%) at 72h, 10 µM_Exp2 (experiment 2, 72 h) [%]	inhibition at 1 µM [1] [%]	inhibition at 1 µM [2] [%]	inhibition at 10 µM [3] [%]	inhibition at 10 µM [4] [%]
CN1c2ccccc2C(=O)N2CCc3c([nH]c4ccccc34)[C@@H]21 (racemic) [(±)-Evodiamine]	64.72	40.81	100.52	97.39				
c1ccc2c(Cc3[nH]c4ccccc4c3Cc3c[nH]c4ccccc34)c[nH]c2c1 [2,3-Bis(3-indolylmethyl) indole]					-5.15	13.6	101	100
c1ccc2c(Cc3c[nH]c4ccccc34)c[nH]c2c1 [3,3'-Diindolylmethane]					-59.5	-44.6	100	95.7
O=C(O)Cc1c[nH]c2ccccc12 [3-Indoleacetic acid]					-25.4	-9.83	102	101
CCc1c2c(nc3ccccc13)-c1cc3c(c(=O)n1C2)COC(=O)[C@]3(O)CC [7-Ethylcamptothecin]	70.44	77.88	96.57	91.90				
CC[C@@]1(O)C(=O)OCc2c1cc1n(c2=O)Cc2cc3c(N)cccc3nc2-1 [9-Aminocamptothecin]					-3.99	62	74.7	89.1
CC[C@@]1(O)C(=O)OCc2c1cc1n(c2=O)Cc2cc3c(OC)cccc3nc2-1 [9-Methoxycamptothecin]	64.49	73.97	96.02	94.80				
CC[C@@]1(O)C(=O)OCc2c1cc1n(c2=O)Cc2cc3cc(OC)ccc3nc2-1 [10-Methoxycamptothecin]	73.40	85.61	97.42	93.76				
CCc1ccc(O)c2cc3c(nc12)-c1cc2c(c(=O)n1C3)COC(=O)[C@]2(O)CC [12-Ethyl-9-hydroxycamptothecin]	22.17	56.54	70.30	62.49				
CC(C)=CC[C@H](O)C1=CC(=O)c2c(O)ccc(O)c2C1=O [(-)-Alkannin]	100.44	100.08	99.90	99.93				
Br.CN1[C@H]2C[C@H](OC(=O)[C@H](CO)c3ccccc3)C[C@@H]1[C@@H](O)C2 [Anisodamine (hydrobromide)]	-15.73	4.55	80.63	11.58				
COc1ccc2cc3[n+](cc2c1OC)CCc1cc2c(cc1-3)OCO2.O.[Cl-] [Berberine (chloride hydrate)]	29.91	24.54	98.55	99.87				
COc1ccc2cc3[n+](cc2c1OC)CCc1cc2c(cc1-3)OCO2.[Cl-] [Berberine (chloride)]	16.68	6.56	99.29	97.39				
COc1ccc2cc3[n+](cc2c1OC)CCc1cc2c(cc1-3)OCO2.O=S(=O)([O-])O [Berberine (sulfate)]	19.57	-24.39	70.74	94.59				
CC[C@@]1(O)C(=O)OCc2c1cc1n(c2=O)Cc2cc3ccccc3nc2-1 [Camptothecin]					66.4	89.3	91	95.9
CC[C@H]1CN2CCc3cc(OC)c(OC)cc3[C@@H]2C[C@@H]1C[C@H]1NCCc2cc(O)c(OC)cc21.Cl.Cl [Cephaeline (dihydrochloride)]	-15.97	-74.54	96.96	92.99				
O=S(=O)([O-])O.c1c2c(cc3c1OCO3)-c1cc3ccc4c(c3c[n+]1CC2)OCO4 [Coptisine (Sulfate)]	-9.12	-56.10	71.50	83.90				
[Cl-].c1c2c(cc3c1OCO3)-c1cc3ccc4c(c3c[n+]1CC2)OCO4 [Coptisine (chloride)]	29.53	16.08	84.96	96.73				
